The text below walks through data of EP0745597A2, “Novel melatonergic indanyl piperazines or homopiperazines” (BRISTOL-MYERS SQUIBB COMPANY, priority 1995, dated 1996).

Molecules are shown by their SMILES. Values joined by “and” are separate entries in the source; they are usually repeats but may differ in a detail not shown here. Equal values may be shown once.

The target in this assay is T1, human ML1B receptor (Homo sapiens, UniProt P49286).
T1 construct: host or cells: NIH 3T3 cells, stably transfected; membrane homogenates
T1 sequence (P49286 1-362): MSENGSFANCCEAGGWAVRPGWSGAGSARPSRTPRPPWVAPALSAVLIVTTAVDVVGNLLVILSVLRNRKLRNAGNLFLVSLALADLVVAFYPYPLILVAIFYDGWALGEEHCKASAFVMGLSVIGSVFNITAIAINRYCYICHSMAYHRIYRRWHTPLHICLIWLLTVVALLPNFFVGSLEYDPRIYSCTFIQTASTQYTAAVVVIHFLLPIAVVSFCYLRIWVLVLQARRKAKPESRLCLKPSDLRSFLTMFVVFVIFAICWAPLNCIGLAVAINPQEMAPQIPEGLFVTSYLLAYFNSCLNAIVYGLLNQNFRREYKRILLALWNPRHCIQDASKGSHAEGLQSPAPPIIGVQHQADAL
Put plainly: Measurement of binding to melatonergic receptors (2-[125I]-iodomelatonin, membranes of transfected NIH 3T3 cells). To be noted: 2-[125I]-Iodomelatonin 200 pM, 37 °C for 1 hour, NIH 3T3 cells stably transfected with the human ML1B receptor; read-out: Melatonin Binding. As to the method:
The melatonergic binding affinities of various compounds of Formula I were determined by the method of Reppert, S. M., Weaver, D. R., and Ebisawa, R. (Neuron, Volume 13, 1177-1185, 1994). The assays were incubated at 37 °C for 1 hour, and the reaction was terminated by filtration. The filters were washed with wash buffer. […] The reagents, membrane and other techniques used in the melatonergic binding assays are more fully described below: • 1. Reagents: • (a) 50 mM Tris buffer containing 12.5 mM MgCl2, and 2mM EDTA, pH 7.4 at 37 °C. • (b) Wash buffer: 20 mM Tris base containing 2 mM MgCl2. pH 7.4 at room temperature. • (c) Melatonin (10^-5 M final concentration). • (d) 2-[^125I]-Iodomelatonin, 200 pM final concentration Source: NEN • 2. Membrane preparation: NIH 3T3 cells stably transfected with the human ML1B receptor were obtained from S.M. Reppert and maintained. Cells were pelleted when confluent. The supernatant was discarded and the pellets frozen. For preparing membrane homogenates, the pellets are thawed on ice and resuspended in TME buffer, Tris base, MgCl2, EDTA (pH 7.4 at 37 °C ), supplemented with aprotinin, leupeptin, and […]. The cells were then homogenized and centrifuged. The resulting pellet was resuspended with a Dounce homogenizer in TME and frozen. At assay, a small aliquot was thawed on ice and resuspended in TME buffer. […] These compounds are considered active.
As to `COc1ccc2c(c1)C(N1CCN(C(C)=O)CC1)CCC2` (stereo not drawn) [1-Acetyl-4-(7-methoxy-tetralin-1-yl)piperazine], the IC50 lay within 10 to 100 nM.

For the compound `CCOC(=O)N1CCN(C2CCc3ccc(OC)cc32)CC1` (stereo not drawn) [1-(Ethoxycarbonyl)-4-(6-methoxy-indan-1-yl)piperazine], the IC50 lay in the range of 100 to 250 nM.

Turning to `COc1ccc2c(c1)C(N1CCN(C(=O)NC(C)C)CC1)CC2` (stereo not drawn) [N-(1-Methylethyl)-4-(6-methoxy-indan-1-yl)piperazine-1-carboxamide], the IC50 lay in the range of 10 to 100 nM.

Consider `COc1ccc2c(c1)C(N1CCN(C(=O)c3occc3C)CC1)CC2` (single isomer, unassigned; (-)) [(-)-4-(6-Methoxy-indan-1-yl)-1-[(3-methyl-furan-2-yl)carbonyl]piperazine], for which the IC50 is under 10 nM.

Turning to `COc1ccc2c(c1)C(N1CCN(C(=O)c3cc(Br)c(Br)s3)CC1)CC2` (single isomer, unassigned; (-)) [(-)-1-[(4,5-Dibromo-thien-2-yl)carbonyl]-4-(6-methoxy-indan-1-yl)piperazine], the IC50 was 100 to 250 nM.

Regarding `COc1ccc2c(c1)C(N1CCN(C(=O)C3CC3)CC1)CCC2` (stereo not drawn) [1-(Cyclopropylcarbonyl)-4-(7-methoxy-tetralin-1-yl)piperazine], the IC50 is 100 to 250 nM.

Take `COc1ccc2c(c1)C(N1CCN(C(=O)C3CCC3)CC1)CC2` (stereo not drawn) [1-(Cyclobutylcarbonyl)-4-(6-methoxy-indan-1-yl)piperazine]: the IC50 is under 10 nM.

As to `COc1ccc2c(c1)C(N1CCN(C(=O)CCl)CC1)CC2` (single isomer, unassigned; (-)) [(-)-1-(Chloroacetyl)-4-(6-methoxy-indan-1-yl)piperazine], the IC50 was in the range of 10 to 100 nM.

For `CCNC(=O)N1CCN(C2CCCc3ccc(OC)cc32)CC1` (stereo not drawn) [N-Ethyl-4-(7-methoxy-tetralin-1-yl)piperazine-1-carboxamide], the IC50 fell in the range of 100 to 250 nM.

With `COc1ccc2c(c1)C(N1CCN(C(=O)C3CC3)CC1)CC2` (stereo not drawn) [1-(Cyclopropylcarbonyl)-4-(6-methoxy-indan-1-yl)piperazine], the IC50 is under 10 nM.

With `COc1ccc2c(c1)C(N1CCN(C(=O)c3ccc(Cl)s3)CC1)CC2` (single isomer, unassigned; (-)) [(-)-1-[(5-Chloro-thien-2-yl)carbonyl]-4-(6-methoxy-indan-1-yl)piperazine], the IC50 was 100 to 250 nM.

Take `COc1cc2c(cc1F)CCC2N1CCN(C(=O)C2CC2)CC1` (stereo not drawn) [1-(Cyclopropylcarbonyl)-4-(5-fluoro-6-methoxy-indan-1-yl)piperazine]: the IC50 lay within 10 to 100 nM.

For `CCNC(=O)N1CCN(C2CCc3ccc(OC)cc32)CC1` (stereo not drawn) [N-Ethyl-4-(6-methoxy-indan-1-yl)piperazine-1-carboxamide], the IC50 is 10 to 100 nM.

As to `CCCCCCCCCOc1ccc2c(c1)C(N1CCN(C(=O)C3CC3)CC1)CC2` (stereo not drawn) [1-(Cyclopropylcarbonyl)-4-(6-nonyloxy-indan-1-yl)piperazine], the IC50 fell in the range of 100 to 250 nM.

Consider `CCOc1ccc2c(c1)C(N1CCN(C(=O)C3CC3)CC1)CC2` (stereo not drawn) [1-(Cyclopropylcarbonyl)-4-(6-ethoxy-indan-1-yl)piperazine], for which the IC50 was under 10 nM.

Take `CCCC(=O)N1CCN(C2CCc3ccc(OC)cc32)CC1` (stereo not drawn) [1-Butanoyl-4-(6-methoxy-indan-1-yl)piperazine]: the IC50 is under 10 nM.

On to `COc1ccc2c(c1)C(N1CCN(C(=O)CSC)CC1)CC2` (single isomer, unassigned; (-)) [(-)-4-(6-Methoxy-indan-1-yl)-1-(2-methylthioacetyl)piperazine], for which the IC50 was under 10 nM.

For the compound `COc1ccc2c(c1)C(N1CCN(C(=O)c3cccs3)CC1)CC2` (stereo not drawn) [4-(6-Methoxy-indan-1-yl)-1-[(2-thienyl)carbonyl]piperazine], the IC50 was under 10 nM.

As for `CCCOc1ccc2c(c1)C(N1CCN(C(=O)C3CC3)CC1)CC2` (stereo not drawn) [1-(Cyclopropylcarbonyl)-4-[6-(1-propyloxy)indan-1-yl]piperazine], the IC50 was in the range of 10 to 100 nM.

Turning to `CCNC(=O)N1CCCN(C2CCc3ccc(OC)cc32)CC1` (stereo not drawn) [N-Ethyl-4-(6-methoxy-indan-1-yl)homopiperazine-1-carboxamide], the IC50 was in the range of 10 to 100 nM.

In the case of `COc1ccc2c(c1)C(N1CCN(C(=O)C(C)(C)C)CC1)CC2` (stereo not drawn) [1-(2,2-dimethyl-propanoyl)-4-(6-methoxy-indan-1-yl)piperazine], the IC50 was in the range of 10 to 100 nM.

Consider `COc1ccc2c(c1)C(N1CCN(C(=O)C(C)C)CC1)CC2` (stereo not drawn) [4-(6-Methoxy-indan-1-yl)-1-(2-methyl-propanoyl)piperazine], for which the IC50 was < 10 nM and 100 to 250 nM.

Regarding `C=CCCC(=O)N1CCN(C2CCc3ccc(OC)cc32)CC1` (single isomer, unassigned; (-)) [(-)-4-(6-Methoxy-indan-1-yl)-1-(4-pentenoyl)piperazine], the IC50 was 100 to 250 nM.

For the compound `CCCOc1ccc2c(c1)C(N1CCN(C(=O)NCC)CC1)CC2` (stereo not drawn) [N-Ethyl-4-(6-propyloxy-indan-1-yl)piperazine-1-carboxamide], the IC50 lay within 10 to 100 nM.

On to `COc1ccc2c(c1)C(N1CCCN(C(=O)C3CC3)CC1)CC2` (stereo not drawn) [1-(Cyclopropylcarbonyl)-4-(6-methoxy-indan-1-yl)homopiperazine], for which the IC50 fell in the range of 10 to 100 nM.

For `COc1ccc2c(c1)C(N1CCN(C(=O)C3CCCC3)CC1)CC2` (stereo not drawn) [1-(Cyclopentylcarbonyl)-4-(6-methoxy-indan-1-yl)piperazine], the IC50 fell in the range of 10 to 100 nM.

Consider `COc1ccc2c(c1)C(N1CCN(C(=O)c3ccoc3)CC1)CC2` (single isomer, unassigned; (-)) [(-)-1-[(3-Furanyl)carbonyl]-4-(6-methoxy-indan-1-yl)piperazine], for which the IC50 was 10 to 100 nM.
